Where “and” joins values, the source holds several entries; their conditions need not be identical. Identical values can stand only once. Entries after “also recorded” stand apart in the source; their conditions may differ. Like-named read-outs stand apart in the source and are kept apart here.
Tests used:
[1] = system: core 2 GlcNAc-T
[2] = system: CHO cells; assay: Proliferation (doubling time) of CHO cells in the presence of differentiation agents; type: cell-based, Chinese hamster
[3] = system: β1-3Gal-T
[4] = in vitro; settings: hamster, cho cells
[5] = system: cAMP; type: cell-based, Chinese hamster
[6] = system: CHO cells; assay: Cell morphology of CHO cells; type: cell-based, Chinese hamster
[7] = system: core 2 GlcNAc-T; type: biochemical, Chinese hamster
[8] = system: Ca^++ -dependent protein kinases; settings: cell-free assays; Hidaka et al, 1984; cited from earlier work
[9] = system: core 2 GlcNAc-T; assay: Substrate Km for core 2 GlcNAc-T found in CHO and MDAY-D2 cell lysates; type: biochemical, Chinese hamster; murine
[10] = system: core 2 GlcNAc-T; settings: CHO and MDAY-D2 cell lysates; Yousefi et al (1991); cited from earlier work
[11] = 2 hour incubation, lysates from control or butyrate+cholera toxin-treated cells
[12] = system: bovine β1-4Gal-T; assay: Kinetics of the β1-4Gal-T reaction; type: biochemical; settings: 1 mU Gal-T, 5 min at 30° C.
[13] = system: cAMP-dependent protein kinases; settings: cell-free assays; Hidaka et al, 1984; cited from earlier work
[14] = molecular target: T1, core 2 GlcNAc-T (Cricetulus griseus, UniProt A0A9J7GWB2); assay: Kinetic analysis of core 2 GlcNAc-T activity in CHO cell lysates; type: biochemical, Chinese hamster; settings: butyrate+cholera toxin-treated versus untreated CHO cells
T1 construct: The lysates were adjusted to 8-12 μg/μl protein with lysis solution and used as the source of transferases; endogenous in cells; host or cells: CHO cells (untreated or treated with differentiating agents), detergent lysate; in A6 freeze-thawed cells, pelleted membranes
T1 sequence (A0A9J7GWB2 1-428): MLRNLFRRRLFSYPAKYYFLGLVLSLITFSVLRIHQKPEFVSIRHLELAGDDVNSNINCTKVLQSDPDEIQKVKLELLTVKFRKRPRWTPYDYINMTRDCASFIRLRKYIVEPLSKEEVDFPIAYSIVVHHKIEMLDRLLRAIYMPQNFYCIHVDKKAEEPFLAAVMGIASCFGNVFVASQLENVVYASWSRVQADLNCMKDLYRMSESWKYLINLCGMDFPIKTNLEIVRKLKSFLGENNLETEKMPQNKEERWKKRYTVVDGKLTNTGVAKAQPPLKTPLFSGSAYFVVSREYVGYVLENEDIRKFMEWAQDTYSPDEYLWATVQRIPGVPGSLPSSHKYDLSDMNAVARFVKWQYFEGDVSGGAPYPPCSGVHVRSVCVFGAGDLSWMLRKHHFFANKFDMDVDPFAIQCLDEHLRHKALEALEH

[15] = 1 μM actinomycin D, 5 μg/ml cycloheximide, 50 μM kinase inhibitors

Q: Which “effect on core 2 GlcNAc-T activity in CHO cells (in words)” value (“effect … in CHO cells (in words)” for short) [1] does the source give for `Nc1ncnc2c1nc(Br)n2[C@@H]1O[C@@H]2COP(=O)(O)O[C@H]2[C@H]1O` [8-bromo-cAMP] here?
A: failed to induce enzyme activity

Q: Which results are given for `CC1=C(/C=C/C(C)=C/C=C/C(C)=C/C(=O)O)C(C)(C)CCC1` [RA, all-trans-retinoic acid]?
A: Doubling Time [2]: 13 h; effect on core 2 GlcNAc-T activity in CHO cells (in words) [1]: had no effect on activity; effect on core 2 GlcNAc-T activity in CHO cells (in words) ([1]; listed as retinoic acid): Neither cholera toxin alone, retinoic acid, DMSO nor PMA had any effect on core 2 GlcNAc-T activity

Q: With `CCCC(=O)[O-].[Na+]` [butyrate, sodium butyrate] as the compound, how does the “increase in β1-3 Gal-T activity” value ([3]; cho cells, 24 h, 2000 µM) read?
A: approximately 2 fold

Q: What about the “increase in β1-3Gal-T activity” value ([3]; cho cells, 24 h, 2000 µM) of the same compound?
A: 2-3 times

Q: And the “Doubling Time” value [2]?
A: 25 to 27 h and 24 h

Q: And the “effect on cell proliferation (in words)” value [2]?
A: reductions in cell growth rates; also recorded: slowed cell proliferation

Q: And the viability at 2000 µM [4]?
A: 90 to 95%

Q: And the “delay of core 2 GlcNAc-T peaks after peaks in cytosolic cAMP” value [5]?
A: 8 to 12 h

Q: And the “effect on intracellular/cytosolic cAMP levels (in words)” value [5]?
A: butyrate treatment increases intracellular cAMP levels; also recorded: elevated cytosolic cAMP levels

Q: What about the “time by which cAMP elevation preceded induction of core 2 GlcNAc-T activity” value [5] of the same compound?
A: approximately 8 h

Q: And the “time of first peak of cAMP” value [5]?
A: 12 h

Q: And the “time of second peak of cAMP” value [5]?
A: 72 h

Q: And the “changes in cell morphology (in words)” value [6]?
A: induced changes in cell morphology

Q: What about the “effect … in CHO cells (in words)” value [1] of the same compound?
A: only butyrate induced core 2 GlcNAc-T activity

Q: And the “second peak of core 2 GlcNAc-T activity, higher than the 24 hours peak” value [1]?
A: approximately 45%

Q: And the “time of first peak (maximum) of core 2 GlcNAc-T activity” value [1]?
A: 24 h

Q: What about the “time of second peak of core 2 GlcNAc-T activity” value [1] of the same compound?
A: 84 h

Q: What about the “core 2 GlcNAc-T activity greater than controls” value ([1]; cho cells, 2000 µM) of the same compound?
A: 10-20 times

Q: What about the “fold increase in core 2 GlcNAc-T activity” value ([1]; cho cells, 24 h) of the same compound?
A: 16 fold

Q: What about the “core 2 GlcNAc-T activity, kinase +” value [7] of the same compound?
A: 264.9

Q: What about the “core 2 GlcNAc-T activity, kinase -” value [7] of the same compound?
A: 267.4

Q: Which results are given for `CC1CNCCN1S(=O)(=O)c1cccc2cnccc12` (centres unmarked) [H-7]?
A: IC50 [8]: 1 to 10 µM; effect on induction of core 2 GlcNAc-T activity by butyrate (in words) [1, 15]: blocked induction of core 2 GlcNAc-T activity

Q: Which “effect … in CHO cells (in words)” value [1] does the source give for `CCCC(=O)Nc1ncnc2c1ncn2[C@@H]1O[C@@H]2COP(=O)(O)O[C@H]2[C@H]1OC(=O)CCC` [dibutyryl cAMP] here?
A: failed to induce enzyme activity

Q: Which “fold by which substrate Km for β1-4Gal-T is lower than for core 2 GlcNAc-T” value [9] does the source give for `CC(=O)N[C@H]1[C@@H](OP(=O)(O)OP(=O)(O)OC[C@H]2O[C@@H](n3ccc(=O)[nH]c3=O)[C@H](O)[C@@H]2O)O[C@H](CO)[C@@H](O)[C@@H]1O` [UDP-GlcNAc] here?
A: 7 fold

Q: What about the Km [10] of the same compound?
A: 500 µM

Q: What about the UDP-GlcNAc remaining intact [11] of the same compound?
A: 93-95%

Q: Which Km [12] does the source give for `COC(=O)CCCCCCCCO[C@@H]1O[C@H](CO[C@H]2O[C@H](CO)[C@@H](O)[C@H](O)[C@@H]2O[C@@H]2O[C@H](CO)[C@@H](O)[C@H](O)[C@H]2NC(C)=O)[C@@H](O)[C@H](O)[C@@H]1O` [GlcNAcβ1-2Manα1-6Manβ--O--(CH2)8 --COOCH3] here?
A: 45 µM

Q: Which IC50 [13] does the source give for `CNCCNS(=O)(=O)c1cccc2cnccc12` [H-8] here?
A: 1 to 10 µM

Q: And the “effect on induction of core 2 GlcNAc-T activity by butyrate (in words)” value [1, 15]?
A: blocked induction of core 2 GlcNAc-T activity

Q: Which “Doubling Time” value [2] does the source give for `CCCCCCCCCCCCCC(=O)O[C@@H]1[C@@H](C)[C@@]2(O)[C@@H](C=C(CO)C[C@]3(O)C(=O)C(C)=C[C@@H]23)[C@@H]2C(C)(C)[C@]12OC(C)=O` [TPA, phorbol 12-myristate 13-acetate] here?
A: 13 h

Q: And the “effect … in CHO cells (in words)” value ([1]; listed as PMA)?
A: Neither cholera toxin alone, retinoic acid, DMSO nor PMA had any effect on core 2 GlcNAc-T activity

Q: With cholera toxin as the compound, how does the “effect on cell proliferation (in words)” value [2] read?
A: reductions in cell growth rates; also recorded: slowed cell proliferation

Q: And the “effect on intracellular/cytosolic cAMP levels (in words)” value [5]?
A: enhanced both cytosolic cAMP concentrations and core 2 GlcNAc-T activity compared to butyrate-treatment alone

Q: What about the “changes in cell morphology (in words)” value [6] of the same compound?
A: induced changes in cell morphology

Q: And the “additional increase in core 2 GlcNAc-T activity in butyrate-treated cells” value [1]?
A: 2 fold

Q: What about the “effect on core 2 GlcNAc-T activity of butyrate-treated cells (in words)” value [1] of the same compound?
A: enhanced both cytosolic cAMP concentrations and core 2 GlcNAc-T activity compared to butyrate-treatment alone

Q: What about the “enhancement of core 2 GlcNAc-T activity in butyrate-treated cells” value [1] of the same compound?
A: 80%

Q: What does the source list for `CC(=O)N[C@H]1[C@@H](Oc2ccc([N+](=O)[O-])cc2)O[C@H](CO)[C@H](O)[C@@H]1O[C@@H]1O[C@H](CO)[C@H](O)[C@H](O)[C@H]1O` [Galβ1-3GalNAcα-pNp]?
A: change in Km for the synthetic acceptor (in words) [14]: no changes in Km; fold by which substrate Km for β1-4Gal-T is lower than for core 2 GlcNAc-T [9]: 5 fold; Km [10]: 300 µM

Q: For `NC(N)=NCCNS(=O)(=O)c1cccc2cnccc12` [H-1004], which “effect on induction of core 2 GlcNAc-T activity by butyrate (in words)” value [1] is on record?
A: had no effect

Q: What does the source list for `C[S+](C)[O-]` [DMSO, dimethylsulfoxide]?
A: B-1 Gal-T activity ([3]; 24 h treatment): 9.1 nmoles/m/h; B-1 Gal-T activity ([3]; 48 h treatment): 8.1 nmoles/m/h; B-1 Gal-T activity ([3]; 72 h treatment): 5.6 nmoles/m/h; Doubling Time [2]: 25 to 27 h; effect on cell proliferation (in words) [2]: reductions in cell growth rates; Doubling Time ([2]; average slopes of growth curves over 72 hours): 25 h; effect on cell proliferation (in words) ([2]; listed as dimethylsulfoxide): slowed cell proliferation; changes in cell morphology (in words) [6]: changes in cell morphology; changes in cell morphology (in words) ([6]; listed as dimethylsulfoxide): induced changes in cell morphology; Core 2 GlcNAc-T activity ([1]; 24 h treatment): 9.6 pmol/mg/h; Core 2 GlcNAc-T activity ([1]; 48 h treatment): 11.2 pmol/mg/h; Core 2 GlcNAc-T activity ([1]; 72 h treatment): 9.5 pmol/mg/h

From patent publication US5501957A, “Method for measuring glycosyltransferase activity” (priority 1994, dated 1996)
